Test results: patent publication US20220054588A1, “USE OF SAP FOR THE TREATMENT OF EUROTIOMYCETES FUNGI INFECTIONS” (HUMANITAS MIRASOLE S.P.A., priority 2018, published 2022)

How the values were obtained:
[1] = test system: Candida albicans; assay: FACS binding of biotin-conjugated murine SAP to Candida albicans, with competition
Experimental: FIG. 16 depicts the binding of Sap on Candida. a) FACS analysis of binding of biotin-conjugated (b-) murine SAP (Sap; 10 μg/ml) to bastospore, yeast and hyphae of Candida albicans (1×10^8). Human SAP (50 μg/ml) was also used to compete binding of Sap. […] Survival of wt and Apcs^−/− mice after retroorbital injection of 1×10^6 blastospores of Candida albicans. wt, n=10; Apcs^−/− n=12.
(§1) Binding of SAP. Conidia of A. fumigatus and A. flavus (1×10^8 CFU) were cultured 4 and 16 h under static condition in Sabouraud medium to respectively allow conidia swelling and germination. Blastospores and yeast of Candida albicans were prepared as previously described (Santus et al., 2017). Yeast (8×10^6/ml) were incubated at 37° C. for hyphal induction. Formation of hyphae was evaluated under a microscope at different time points until its amount was assessed at 95%. After washing with PBS^2+, pH 7.4, containing 0.01% (vol/vol) Tween-20 ® (Merck-Millipore), Cells (1×10^7 CFU) were incubated (1 h, r. t.) with biotin-labelled murine SAP (R&D Systems) at concentrations ranging from 0.1 to 10 μg/ml in PBS^2+, pH 7.4, containing 2% BSA (Sigma-Aldrich). […] After extensive washing, samples were incubated (30 min, r. t.) with Alexa Fluor® 647-conjugated streptavidin and binding was evaluated by FACS as frequency and MFI and visualized by confocal microscopy as described. […]

[2] = test system: A. fumigatus conidia; assay: FACS binding of biotin-conjugated murine SAP to A. fumigatus conidia, with competition; set-up: species or system Aspergillus fumigatus; details: Sap 10 μg/ml
Experimental: FIG. 1 depicts the interaction of SAP with A. fumigatus conidia in mice. a) induction of SAP circulating levels after i.t. injection of 5×10^7 A. fumigatus (AF) conidia; LPS, 0.8 mg/Kg. Mean±SD. c) FACS analysis of binding of biotin-conjugated (b-) murine SAP (Sap; 10 μg/ml) to viable dormant or germinating conidia of AF (1×10^8). Human SAP (50 μg/ml) and CRP (50 μg/ml) were also used. Mean±SD of one quadruplicate experiment of two performed.
FIG. 10 depicts the susceptibility to A. fumigatus associated with single or double deficiency for SAP and PTX3. a and b, survival of wt and Apcs^−/−, Ptx3^−/− and Apcs^−/−, Ptx3^−/− mice after i.t. injection of 1×10^8 (a) or 5×10^7 (b) conidia. a, wt, n=9 (a, b); n=9 (a, b); Ptx3^−/−, n=7 (a) or n=10 (b); Ptx3^−/−, n=5 (a) or n=12 (b). a, b, P<0.05, wt vs. Apcs^−/− P<0.01 wt vs. Apcs^−/−, Ptx3^−/−; P=0.06, Apcs^−/−, Ptx3^−/− vs. Ptx3^−/− (Mantel-Cox test). a) Curves of wt and Apcs^−/− refer to the same ones shown in FIG. 2a-c FACS analysis of Sap (range from 0.1 to 10 μg/ml) binding to viable AF conidia (1×10^8) in presence of Ptx3 (50 μg/ml). An anti-Sap monoclonal antibody (non-reactive to Ptx3) was used. Mean±SD of a triplicate. **, P<0.01;***, P<0.005;****, P<0.0001 (unpaired t-test).
as §1, with “95%.” for “95%. After washing with PBS^2+, pH 7.4, containing 0.01% (vol/vol) Tween-20 ® (Merck-Millipore), Cells (1×10^7 CFU) were incubated (1 h, r. t.) with biotin-labelled murine SAP (R&D Systems) at concentrations ranging from 0.1 to 10 μg/ml in PBS^2+, pH 7.4, containing 2% BSA (Sigma-Aldrich).”

“human native SAP: Native SAP from human serum purchased by Merck-Millipore; Serum Amyloid P component, SEQ ID NO: 1” was tested, and the “competition of Sap binding to Candida albicans” value ([1]; competitor 50 μg/ml) was “competed” and the “competition of murine SAP binding to A. fumigatus conidia” value ([2]; competitor 50 μg/ml) was “competed”.

B1: recombinant murine SAP: recombinant murine SAP from mouse myeloma cell line NSO (R&D Systems) (protein, UniProt P12246 21-224, looked up)
Serum amyloid P-component: QTDLKRKVFVFPRESETDHVKLIPHLEKPLQNFTLCFRTYSDLSRSQSLFSYSVKGRDNELLIYKEKVGEYSLYIGQSKVTVRGMEEYLSPVHLCTTWESSSGIVEFWVNGKPWVKKSLQREYTVKAPPSIVLGQEQDNYGGGFQRSQSFVGEFSDLYMWDYVLTPQDILFVYRDSPVNPNILNWQALNYEINGYVVIRPRVWD
B1 was tested, and the “binding to blastospores, yeasts and hyphae of Candida albicans” value ([1]; Sap 10 μg/ml) was “bound with low affinity” and the “binding to A. fumigatus conidia” value ([2]; FACS and confocal microscopy) was “bound viable dormant, swollen and germinated conidia”.
